Assays:
[1] = cited from earlier work
[2] = Degree of permeation of hydrogen peroxide through transwell membrane according to anion irradiation; conditions: 10 minutes, room temperature, composition with 15% by weight hydrogen peroxide and 25 nM potassium triphosphate
Protocol: Two identical transwell membranes were prepared by the above-described process, and one of them was irradiated with anions at room temperature for 10 minutes using an anion irradiator (trade name: Bluen: BN-108), and the other one was allowed to stand at room temperature for 10 minutes without irradiating anions.
Thereafter, the concentration of hydrogen peroxide escaped from each transwell membrane to the outside was titrated to calculate the ratio of hydrogen peroxide that passed through the membrane.

ratio of hydrogen peroxide escaped from the transwell membrane to the outside ([2]; anion-irradiated)	ratio of hydrogen peroxide escaped from the transwell membrane to the outside ([2]; non-irradiated)	Structure (SMILES)	pKa [1]
		O=P([O-])([O-])OP(=O)([O-])OP(=O)([O-])[O-].[K+].[K+].[K+].[K+].[K+] [potassium triphosphate]	12.38
72 % by weight	51 % by weight	OO [hydrogen peroxide]	
